For the data set the following is noted: room temperature.

Where two headings read alike, the source gives them in different places.

We go through two compounds from US6376692B1, “Zirconium alkoxytris (β-Diketonate), process for manufacturing the same, and liquid composition for formation of PZT film” (Kabushikikaisha Kojundokagaku Kenkyusho, priority 1999, dated 2002).

For `CC(C)(C)C(=O)C=C(O)C(C)(C)C.CC(C)(C)C(=O)C=C(O)C(C)(C)C.CC(C)(C)C(=O)C=C(O)C(C)(C)C.CC(C)(C)C(=O)C=C(O)C(C)(C)C.[Zr]` [Zr(dpm)4], the “amount dissolved in 1 liter of the solvent” value runs as follows: (Butyl Acetate) 180 grams in 1 liter of the solven; (Hexane) 430 grams in 1 liter of the solven; (THF) 1020 grams in 1 liter of the solven; (Toluene) 290 grams in 1 liter of the solven; (n-Butyl Ether) 240 grams in 1 liter of the solven.
Turning to `CC(C)(C)C(=O)C=C([O-])C(C)(C)C.CC(C)(C)C(=O)C=C([O-])C(C)(C)C.CC(C)(C)C(=O)C=C([O-])C(C)(C)C.CC(C)[O-].[Zr+4]` [Zr(OiPr)(dpm)3, zirconium isopropoxy tris(dipivaloylmethanate)], the “amount dissolved in 1 liter of the solvent” value runs as follows: (Butyl Acetate) 460 grams in 1 liter of the solven; (Hexane) 620 grams in 1 liter of the solven; (THF) 980 grams in 1 liter of the solven; (Toluene) 1100 grams in 1 liter of the solven; (n-Butyl Ether) 430 grams in 1 liter of the solven.
